Some test systems named below: K-562 leukemia; U251 CNS; SNB-19 CNS; SR leukemia; HCT-15 colon; MALME-3M melanoma; NCI-H522 lung; HL-60(TB) leukemia; SN12C renal; HCC-2998 colon.
What all share (experiment): NCI-60 cell line screen, 48 h

Structures are written as SMILES. Several values for one entry are separate records, joined by “and”; a condition that tells them apart may be missing. Identical values can stand only once.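 Five concentrations, 48 hours, 96-well plates. GI50 is the concentration that inhibits growth by half. The concentration for full growth arrest is given as TGI.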

For `CCCN(CCC)C(=O)[C@H](CC)[C@@H]1CC[C@@H](C)[C@@H]([C@H](C)[C@@H](O)[C@@H](C)C(=O)[C@H](CC)C2O[C@]3(C=C[C@@H](O)[C@]4(CC[C@@](C)([C@H]5CC[C@](O)(CC)[C@H](C)O5)O4)O3)[C@H](C)C[C@@H]2C)O1` (stereo partly drawn), the GI50 in the assay with K-562 leukemia is 2.68 µM; with U251 CNS, 2.87 µM; in the assay on SNB-19 CNS, 3.36 µM; in the assay with SR leukemia, 2.49 µM; with HCT-15 colon it was 2.24 µM; in the assay with MALME-3M melanoma, 1.72 µM. The GI50 with NCI-H522 lung was 1.82 µM; with HL-60(TB) leukemia, 2.26 µM; with SN12C renal, 2.13 µM; in the assay with HCC-2998 colon it was 2.18 µM. Besides, the TGI with K-562 leukemia is 13 µM; with U251 CNS it was 9.87 µM; in the assay with SNB-19 CNS it was 59.2 µM; in the assay on SR leukemia it was 7.35 µM; with HCT-15 colon it was 5.61 µM; in the assay with MALME-3M melanoma, 3.71 µM. Besides, the TGI was 4.56 µM in the assay with NCI-H522 lung, 5.54 µM with HL-60(TB) leukemia, 6.1 µM in the assay with SN12C renal and 5.76 µM in the assay with HCC-2998 colon.

Take `O=C(CCCCCCC(=O)Nc1ccc2c(c1)/C(=C/c1ccc[nH]1)C(=O)N2)NO`: the GI50 was 0.333 µM with K-562 leukemia; 0.416 µM in the assay with U251 CNS; 0.585 µM in the assay with SNB-19 CNS; 0.253 µM in the assay with SR leukemia; 3.93 µM in the assay on HCT-15 colon; 0.0758 µM in the assay with MALME-3M melanoma. Also, the GI50 with NCI-H522 lung was 0.0829 µM; with HL-60(TB) leukemia it was 0.464 µM; in the assay on SN12C renal, 2.07 µM; in the assay on HCC-2998 colon it was 1.64 µM. Further, the TGI is above 100 µM in the assay with K-562 leukemia; 2.29 µM in the assay on U251 CNS; 33.2 µM with SNB-19 CNS; above 100 µM with SR leukemia; above 49.3 µM in the assay on HCT-15 colon; 35.4 µM in the assay on MALME-3M melanoma. Moreover, the TGI was 0.891 µM in the assay with NCI-H522 lung, above 100 µM in the assay with HL-60(TB) leukemia, 26.5 µM in the assay on SN12C renal and 10.9 µM with HCC-2998 colon.

Consider `CCOC(=O)NC(=O)c1cn(CCN2CCN(C(=O)NCCCCCCNC(=O)N3CCN(CCn4cc(C(=O)NC(=O)OCC)c(=O)n(CCN(CC)CC)c4=O)CC3)CC2)c(=O)n(CCC(CC)CC)c1=O`, for which the TGI with K-562 leukemia, with U251 CNS, in the assay with SNB-19 CNS, with SR leukemia, with HCT-15 colon and with MALME-3M melanoma was above 100 µM in each case. The TGI in the assay on NCI-H522 lung, with HL-60(TB) leukemia, with SN12C renal and with HCC-2998 colon was above 100 µM each time.

For `Cc1ccc(S(=O)(=O)Nc2nc3ccccc3nc2Nc2ccc3nsnc3c2)cc1`, the GI50 with K-562 leukemia was 3.7 µM and 2.82 µM; with U251 CNS it was 3.26 µM and 3.65 µM; with SNB-19 CNS it was 3.29 µM and 3.54 µM; with SR leukemia, 7.87 µM and 4.49 µM; in the assay with HCT-15 colon, 3.61 µM and 3.84 µM; in the assay on MALME-3M melanoma, 2.18 µM and 1.34 µM. Moreover, the GI50 in the assay with NCI-H522 lung was 3.59 µM and 1.5 µM; with HL-60(TB) leukemia, 2.96 µM and 2.86 µM; with SN12C renal, 3.1 µM and 3.04 µM; with HCC-2998 colon, 3.47 µM and 3.67 µM. Further, the TGI in the assay on K-562 leukemia is above 100 µM; in the assay with U251 CNS, above 100 µM; with SNB-19 CNS, above 100 µM; with SR leukemia it was 95.4 µM and > 100 µM; in the assay with HCT-15 colon, above 100 µM; in the assay with NCI-H522 lung, 31.1 µM and 4.47 µM. Besides, the TGI was 14 µM and > 30 µM with HL-60(TB) leukemia; 46.8 µM and > 100 µM in the assay on SN12C renal; 42.9 µM and > 100 µM with HCC-2998 colon.

With `COC(=O)[C@@]1(O)C[C@H]2O[C@]1(C)n1c3ccccc3c3c4c(c5c6ccccc6n2c5c31)C(=O)NC4`, the GI50 in the assay on K-562 leukemia was 0.0397 µM; with U251 CNS it was 1.02 µM; in the assay on SNB-19 CNS, 1.1 µM; in the assay with SR leukemia it was 0.0686 µM; in the assay with HCT-15 colon it was 0.0706 µM; in the assay on MALME-3M melanoma it was 0.186 µM. For the same compound, the GI50 in the assay on NCI-H522 lung is 0.0616 µM; in the assay with HL-60(TB) leukemia, 0.868 µM; with SN12C renal, 0.074 µM; with HCC-2998 colon, 0.609 µM. Besides, the TGI in the assay with K-562 leukemia is 1.28 µM; in the assay with U251 CNS it was 3.05 µM; in the assay with SNB-19 CNS, 4.05 µM; with SR leukemia, 1.75 µM; with HCT-15 colon, 2.5 µM; in the assay with MALME-3M melanoma it was 1.52 µM. The TGI in the assay with NCI-H522 lung was determined as 1.71 µM; in the assay with SN12C renal, 2.15 µM; in the assay on HCC-2998 colon it was 2.8 µM.

For `COc1ccc(/C=C/C(=O)c2cc3c(N)c(C(=O)Nc4ccccc4)sc3nc2C)cc1`, the GI50 in the assay on K-562 leukemia was 0.14 µM; in the assay with U251 CNS, 0.325 µM; in the assay with SNB-19 CNS, 0.269 µM; in the assay on SR leukemia it was 0.207 µM; in the assay on HCT-15 colon it was 0.205 µM; in the assay with MALME-3M melanoma it was 1.7 µM. For the same compound, the GI50 was 0.113 µM in the assay with NCI-H522 lung, 0.119 µM in the assay with HL-60(TB) leukemia, 0.311 µM in the assay with SN12C renal and 0.785 µM in the assay with HCC-2998 colon. Further, the TGI in the assay on K-562 leukemia is above 50 µM; in the assay with U251 CNS it was 8.24 µM; with SNB-19 CNS it was above 50 µM; with SR leukemia, above 50 µM; in the assay on HCT-15 colon it was 8.53 µM; with MALME-3M melanoma, above 50 µM. In addition, the TGI with NCI-H522 lung was 4.56 µM; in the assay with HL-60(TB) leukemia it was 0.342 µM; in the assay with SN12C renal it was above 21 µM; in the assay with HCC-2998 colon it was 6.53 µM.

`COC(=O)C(CC(=O)Nc1ccc(Cl)c(Cl)c1)C(=O)C(=O)NC1C2CC3CC(C2)CC1C3` (stereo not drawn): the TGI in the assay with K-562 leukemia, with U251 CNS, with SNB-19 CNS, in the assay with SR leukemia, in the assay on HCT-15 colon and with MALME-3M melanoma was above 100 µM in each case. Moreover, the TGI in the assay on NCI-H522 lung, in the assay on HL-60(TB) leukemia, in the assay with SN12C renal and in the assay with HCC-2998 colon was above 100 µM in each case.

Regarding `COc1cc(-c2oc3c(OC)c(O)c(OC)c(O)c3c(=O)c2OC)ccc1O`, the TGI in the assay on K-562 leukemia, with U251 CNS, in the assay on SNB-19 CNS, in the assay with SR leukemia, in the assay with HCT-15 colon and with MALME-3M melanoma was above 100 µM throughout. In addition, the TGI with NCI-H522 lung is 66.9 µM; in the assay with HL-60(TB) leukemia it was above 100 µM; in the assay on SN12C renal it was above 100 µM; in the assay with HCC-2998 colon it was above 100 µM.

For `C[CH2][Sn]([Cl])([Cl])[CH2]C`, the GI50 is 18.6 µM with K-562 leukemia; 27.4 µM in the assay with U251 CNS; 39.5 µM in the assay on SNB-19 CNS; 25.3 µM with SR leukemia; above 43.2 µM in the assay with HCT-15 colon; 15.8 µM with MALME-3M melanoma. The GI50 in the assay with NCI-H522 lung is 1.16 µM; with HL-60(TB) leukemia, above 75.9 µM; in the assay with SN12C renal, 35.1 µM; with HCC-2998 colon, above 64.9 µM. Besides, the TGI in the assay with K-562 leukemia is above 69 µM; in the assay with U251 CNS, above 59.1 µM; with SNB-19 CNS, above 91.9 µM; with SR leukemia, above 100 µM; in the assay with HCT-15 colon, above 60.9 µM; in the assay with MALME-3M melanoma it was 30.3 µM. Further, the TGI with NCI-H522 lung is 2.67 µM; in the assay with HL-60(TB) leukemia it was above 100 µM; with SN12C renal, above 78.6 µM; in the assay with HCC-2998 colon, above 100 µM.

On to `N=C(N)c1ccc(-c2ccc(-c3cccs3)s2)nc1`, for which the GI50 in the assay on K-562 leukemia is 1.61 µM; with U251 CNS, 1.66 µM; with SNB-19 CNS it was 3.48 µM; in the assay on SR leukemia it was 1.27 µM; with HCT-15 colon it was 1.93 µM; in the assay on MALME-3M melanoma, 1.96 µM. The GI50 is 1.61 µM in the assay on NCI-H522 lung, 1.78 µM in the assay with HL-60(TB) leukemia, 1.68 µM with SN12C renal and 0.771 µM with HCC-2998 colon. For the same compound, the TGI stood at 3.81 µM with K-562 leukemia; 3.35 µM with U251 CNS; 20.8 µM in the assay on SNB-19 CNS; 5.47 µM with SR leukemia; 4.47 µM in the assay with HCT-15 colon; 3.57 µM in the assay on MALME-3M melanoma. Further, the TGI in the assay on NCI-H522 lung was found to be 3.44 µM; with HL-60(TB) leukemia, 4.01 µM; in the assay on SN12C renal, 5.38 µM; in the assay on HCC-2998 colon, 2.08 µM.

Take `C=CC(=O)Nc1cccc(C)c1Nc1ncc2cc(-c3c(Cl)c(OC)cc(OC)c3Cl)ccc2n1`: the GI50 is 3.89 µM in the assay on K-562 leukemia; 2.3 µM with U251 CNS; 4.14 µM in the assay on SNB-19 CNS; 2.75 µM in the assay on SR leukemia; 4.21 µM in the assay on HCT-15 colon; 3.98 µM in the assay with MALME-3M melanoma. The GI50 with NCI-H522 lung was 10.2 µM; in the assay with HL-60(TB) leukemia, 2.13 µM; in the assay on SN12C renal, 5.87 µM; with HCC-2998 colon, 12.4 µM. The TGI in the assay with K-562 leukemia is above 100 µM; in the assay on U251 CNS, 16.5 µM; in the assay with SNB-19 CNS, 47.1 µM; in the assay on SR leukemia, above 100 µM; with HCT-15 colon it was above 100 µM; in the assay on MALME-3M melanoma, 31.4 µM. For the same compound, the TGI was 26.9 µM in the assay on NCI-H522 lung, 15 µM in the assay on HL-60(TB) leukemia, above 100 µM in the assay on SN12C renal and 31.9 µM in the assay on HCC-2998 colon.

`CS/C(c1ccccc1)=[N+](/C)[O-]`: the TGI in the assay on K-562 leukemia is above 100 µM; with U251 CNS, above 100 µM; with SNB-19 CNS, above 100 µM; in the assay with SR leukemia it was 47.6 µM; in the assay with HCT-15 colon, 41.1 µM; in the assay on MALME-3M melanoma it was above 100 µM. In addition, the TGI in the assay with NCI-H522 lung, in the assay with HL-60(TB) leukemia, with SN12C renal and with HCC-2998 colon was above 100 µM throughout.

`COCCNC(=O)c1ccc(-c2nc3ccc4[nH]ncc4c3c3c2CCCC3)cc1`: the GI50 was 3.86 µM in the assay with K-562 leukemia; 2.6 µM in the assay with U251 CNS; 3.79 µM in the assay with SNB-19 CNS; 0.558 µM in the assay on SR leukemia; 2.67 µM with HCT-15 colon; 2.74 µM with MALME-3M melanoma. The GI50 in the assay on NCI-H522 lung was 1.92 µM; with HL-60(TB) leukemia, 2.43 µM; in the assay on SN12C renal, 2.61 µM; in the assay on HCC-2998 colon, 2.98 µM. Also, the TGI was above 100 µM in the assay on K-562 leukemia; above 100 µM with U251 CNS; above 100 µM with SNB-19 CNS; 6.2 µM in the assay with SR leukemia; above 100 µM in the assay on HCT-15 colon; 18 µM in the assay on MALME-3M melanoma. In addition, the TGI in the assay with NCI-H522 lung is 12.4 µM; in the assay with HL-60(TB) leukemia, 7.33 µM; with SN12C renal, 91.7 µM; with HCC-2998 colon it was above 100 µM.
